According to US4361703A, “Para-amino(or nitro)phenyl N-acetylaminothioalkanoates” (priority 1977, dated 1982):
Where two headings read alike, the source gives them in different places.

Columns and labels:
[1] = Acute oral toxicity in rats; format: in vivo; details: rat, in vivo; for mortality at 144 h / mortality at 48 h / mortality at 72 h / mortality at 96 h / mortality at 120 h / mortality at 168 h / mortality at 24 h: po; for mortality at 144 h: 6 Days
Protocol: (§1) (F)--Investigation of Acute Oral Toxicity in Rats
(§2) The investigation was carried out upon groups of 10 male and 10 female albino rats (Charles River CD-1 COBS) of 80-100 g body weight. […] Before the experiment they were fasted overnight, with water ad libitum. NAPA and Compound A were then administered orally by oesophageal intubation as suspensions (continuously shaken with an electromagnetic agitator) in 1% gum arabic at a volume of 2 ml/100 g body weight, and at dose levels of 1, 2, 4 and 8 g/kg. A control group received orally, under the same experimental conditions, merely 2 ml/100 g of the suspension vehicle. The rats were then kept under observation during seven days, while their behaviour patterns were observed and the mortality recorded

[2] = tested on: albino rats (Charles River CD-1 COBS); experiment: Acute oral toxicity in rats; format: in vivo
Protocol: as §1, §2

[3] = mouse, in vivo, po
Protocol: (A)--Investigation of Serum Concentrations in Mice
36 Charles River COBS mice (18 males and 18 females) weighing 30 g each were deprived of food for 16 hours before the trial but were given their usual drinking water. Three groups, each containing 6 males and 6 females, received a dosage of 1 ml/100 g body weight per mouse, orally by stomach tube, of a suspension in 1% gum tragacanth of respectively:
Group X: 500 mg/kg of N-acetyl-para-aminophenol
A blood sample was taken by throat-slitting from one male and one female from each Group at each study time, i.e. 1/2, 1, 2, 4 and 24 hours after the oral administration.
At times 1/2, 1, 2 and 4 hours, each serum sample was divided into three 0.1 ml trial samples for the following three determinations:

in vivo = details: mouse, in vivo, po
Protocol: (E)--Investigation of Acute Oral Toxicity in Mice
Charles River (CD-1 COBS) albino mice, 20-22 g in weight, were kept for some days in an air-conditioned animal house and fed with a standard diet (sterile VAR granules). They were fasted overnight before experiment, with water ad libitum. 15 Male mice and 15 female mice were used for each experiment.
N-Acetyl-para-aminophenol (NAPA) and N-acetyl-para-aminophenyl N'-acetyl-D,L-methionate (Compound A) were then administered to the mice, orally, as a suspension (shaken continuously with an electromagnetic agitator) in 5% gum arabic at a volume of 0.02 ml/g, either individually or in variously proportioned mixtures and at different dose levels, as shown in Table VII below.
A control group received only the 5% gum arabic vehicle.

[4] = tested on: yeast-inflamed hind-paw pain-threshold; experiment: Analgesic activity, Randall-Selitto test in rats; format: in vivo, female Charles River rats
Protocol: (C)--Investigation of Analgesic Activity in Rats
A control group received only the gum tragacanth vehicle.
In order to evaluate the effect of the treatment upon pain-thresholds, pressure was applied both to the injected hind-paw and to the other non-injected hind-paw. The pain-threshold was noted as the pressure at which the rat flinched, measured using an Ugo Basile "Analgesimeter" for both hind-paws of each rat at intervals of 1 hour, 3 hours, 5 hours and 22 hours after the administration, and expressed as the percentage of the pain-threshold pressure for the injected (and thus inflamed) hind-paw as against the non-injected (and thus healthy) hind-paw.

[5] = 1000 mg/kg, 1 g/kg oral, 10 F, read-out: Percentage Mortality
[6] = 1000 mg/kg, 1 g/kg oral, 10 M, read-out: Percentage Mortality
[7] = 1000 mg/kg, 1 g/kg oral, M & F, read-out: Percentage Mortality
[8] = 2000 mg/kg, 2 g/kg oral, 10 F, read-out: Percentage Mortality
[9] = 2000 mg/kg, 2 g/kg oral, 10 M, read-out: Percentage Mortality
[10] = 2000 mg/kg, 2 g/kg oral, M & F, read-out: Percentage Mortality
[11] = 4000 mg/kg, 4 g/kg oral, 10 F, read-out: Percentage Mortality
[12] = 4000 mg/kg, 4 g/kg oral, 10 M, read-out: Percentage Mortality
[13] = 4000 mg/kg, 4 g/kg oral, M & F, read-out: Percentage Mortality
[14] = 4000 mg/kg, Percentage Mortality
[15] = 8000 mg/kg, 8 g/kg oral, 10 F, read-out: Percentage Mortality
[16] = 8000 mg/kg, 8 g/kg oral, 10 M, read-out: Percentage Mortality
[17] = 8000 mg/kg, 8 g/kg oral, M & F, read-out: Percentage Mortality
[18] = 8000 mg/kg, Percentage Mortality

SMILES: CC(=O)Nc1ccc(O)cc1 [NAPA, N-acetyl-para-aminophenol]
- mortality at 144 h [1, 5]: 0%
- mortality at 48 h [1, 5]: 0%
- mortality at 72 h ([1]; 1000 mg/kg, 1 g/kg oral, 10 M, 3 Days, read-out: Percentage Mortality): 10%
- mortality at 96 h ([1]; 1000 mg/kg, 1 g/kg oral, 10 M, 4 Days, read-out: Percentage Mortality): 10%
- mortality at 120 h ([1]; 1000 mg/kg, 1 g/kg oral, 10 M, 5 Days, read-out: Percentage Mortality): 10%
- mortality at 144 h [1, 6]: 10%
- mortality at 168 h ([1]; 1000 mg/kg, 1 g/kg oral, 10 M, 7 Days, read-out: Percentage Mortality): 10%
- mortality at 24 h ([1]; 1000 mg/kg, 1 g/kg oral, 10 M, 24 Hours, read-out: Percentage Mortality): 10%
- mortality at 48 h [1, 6]: 10%
- mortality at 120 h ([1]; 1000 mg/kg, 1 g/kg oral, M & F, 5 Days, read-out: Percentage Mortality): 5%
- mortality at 144 h [1, 7]: 5%
- mortality at 48 h [1, 7]: 5%
- mortality at 120 h ([1]; 1000 mg/kg, Percentage Mortality): 0%
- mortality at 144 h [1, 8]: 0%
- mortality at 48 h [1, 8]: 0%
- mortality at 72 h ([1]; 2000 mg/kg, 2 g/kg oral, 10 M, 3 Days, read-out: Percentage Mortality): 10%
- mortality at 96 h ([1]; 2000 mg/kg, 2 g/kg oral, 10 M, 4 Days, read-out: Percentage Mortality): 10%
- mortality at 120 h ([1]; 2000 mg/kg, 2 g/kg oral, 10 M, 5 Days, read-out: Percentage Mortality): 10%
- mortality at 144 h [1, 9]: 10%
- mortality at 168 h ([1]; 2000 mg/kg, 2 g/kg oral, 10 M, 7 Days, read-out: Percentage Mortality): 10%
- mortality at 24 h ([1]; 2000 mg/kg, 2 g/kg oral, 10 M, 24 Hours, read-out: Percentage Mortality): 10%
- mortality at 48 h [1, 9]: 10%
- mortality at 120 h ([1]; 2000 mg/kg, 2 g/kg oral, M & F, 5 Days, read-out: Percentage Mortality): 5%
- mortality at 144 h [1, 10]: 5%
- mortality at 48 h [1, 10]: 5%
- mortality at 120 h ([1]; 2000 mg/kg, Percentage Mortality): 0%
- mortality at 144 h [1, 11]: 70%
- mortality at 168 h ([1]; 4000 mg/kg, 4 g/kg oral, 10 F, 7 Days, read-out: Percentage Mortality): 70%
- mortality at 48 h [1, 11]: 70%
- mortality at 72 h ([1]; 4000 mg/kg, 4 g/kg oral, 10 M, 3 Days, read-out: Percentage Mortality): 90%
- mortality at 96 h ([1]; 4000 mg/kg, 4 g/kg oral, 10 M, 4 Days, read-out: Percentage Mortality): 90%
- mortality at 120 h ([1]; 4000 mg/kg, 4 g/kg oral, 10 M, 5 Days, read-out: Percentage Mortality): 90%
- mortality at 144 h [1, 12]: 90%
- mortality at 168 h ([1]; 4000 mg/kg, 4 g/kg oral, 10 M, 7 Days, read-out: Percentage Mortality): 90%
- mortality at 24 h ([1]; 4000 mg/kg, 4 g/kg oral, 10 M, 24 Hours, read-out: Percentage Mortality): 90%
- mortality at 48 h [1, 12]: 90%
- mortality at 144 h [1, 13]: 80%
- mortality at 48 h [1, 13]: 80%
- mortality at 24 h [1, 14]: 70%
- mortality at 72 h [1, 14]: 70%
- mortality at 96 h [1, 14]: 70%
- mortality at 120 h [1, 14]: 70%
- mortality at 168 h [1, 14]: 80%
- mortality at 144 h [1, 15]: 100%
- mortality at 48 h [1, 15]: 100%
- mortality at 72 h ([1]; 8000 mg/kg, 8 g/kg oral, 10 M, 3 Days, read-out: Percentage Mortality): 100%
- mortality at 96 h ([1]; 8000 mg/kg, 8 g/kg oral, 10 M, 4 Days, read-out: Percentage Mortality): 100%
- mortality at 120 h ([1]; 8000 mg/kg, 8 g/kg oral, 10 M, 5 Days, read-out: Percentage Mortality): 100%
- mortality at 144 h [1, 16]: 100%
- mortality at 168 h ([1]; 8000 mg/kg, 8 g/kg oral, 10 M, 7 Days, read-out: Percentage Mortality): 100%
- mortality at 24 h ([1]; 8000 mg/kg, 8 g/kg oral, 10 M, 24 Hours, read-out: Percentage Mortality): 90%
- mortality at 48 h [1, 16]: 100%
- mortality at 144 h [1, 17]: 100%
- mortality at 48 h [1, 17]: 100%
- mortality at 24 h [1, 18]: 100%
- mortality at 72 h [1, 18]: 100%
- mortality at 96 h [1, 18]: 100%
- mortality at 120 h [1, 18]: 100%
- mortality at 168 h [1, 18]: 100%
- LD50 at 24 h ([1]; oral, rats, Miller and Tainter method): 3100 ± 500 mg/kg
- LD50 at 168 h ([1]; oral, rats, Miller and Tainter method, read-out: LD50 (7 days)): 2850 ± 400 mg/kg
- time of first deaths ([2]; 8 g/kg oral, rats): eight hours after the administration at 8 g/kg dose level
- mortality (in words) ([2]; oral, rats, 1-8 g/kg): Heavy mortality
- Percentage Mortality ([2]; rat, in vivo, po, 8000 mg/kg, 24 h): 95 Percentage
- serum "total" or "enzymatic" NAPA profile [3]: slowly decreases but remains high up to 4 hours after oral administration
- LD50 at 24 h (in vivo): 730 ± 65 mg/kg
- LD50 at 168 h (in vivo): 690 ± 65 mg/kg
- Percentage Pain-Threshold (injected vs non-injected paw) ([4]; 1 millimole/kg oral (NAPA 151, A 324 mg/kg), 1 hr. (3.5 hrs. from yeast)): 45 ± 3.5 Percentage
- Percentage Pain-Threshold (injected vs non-injected paw) ([4]; 1 millimole/kg oral (NAPA 151, A 324 mg/kg), 3 hrs. (5.5 hrs. from yeast)): 48 ± 4.1 Percentage
- Percentage Pain-Threshold (injected vs non-injected paw) ([4]; 1 millimole/kg oral (NAPA 151, A 324 mg/kg), 5 hrs. (7.5 hrs. from yeast)): 47 ± 1.7 Percentage
- Percentage Pain-Threshold (injected vs non-injected paw) ([4]; 1 millimole/kg oral (NAPA 151, A 324 mg/kg), 22 hrs. (24.5 hrs. from yeast)): 43 ± 3.4 Percentage
- Percentage Pain-Threshold (injected vs non-injected paw) ([4]; 2 millimoles/kg oral (NAPA 302, A 648 mg/kg), 1 hr. (3.5 hrs. from yeast)): 50 ± 4.2 Percentage
- Percentage Pain-Threshold (injected vs non-injected paw) ([4]; 2 millimoles/kg oral (NAPA 302, A 648 mg/kg), 3 hrs. (5.5 hrs. from yeast)): 54 ± 4.0 Percentage
- Percentage Pain-Threshold (injected vs non-injected paw) ([4]; 2 millimoles/kg oral (NAPA 302, A 648 mg/kg), 5 hrs. (7.5 hrs. from yeast)): 53 ±3.9 Percentage
- Percentage Pain-Threshold (injected vs non-injected paw) ([4]; 2 millimoles/kg oral (NAPA 302, A 648 mg/kg), 22 hrs. (24.5 hrs. from yeast)): 54 ± 4.7 Percentage
- P of pain-threshold (t-test versus control) ([4]; 2 millimoles/kg oral, 3 hrs.): < 0.05
